A short description of series [1]: Polymorphic changes of FA after exposure to water (slurry), followed by 13C CP/MAS NMR. The following applies: slurry 0.5 g FA in 10 ml water, stirred at room temperature for seven days, filtered and dried. The format is physicochemical. As to the method: Slurries containing 0.5 g FA in 10 ml of water were covered and stirred at room temperature for seven days. To remove the water, the samples were filtered and dried overnight at room temperature.
Approximately 80-100 mg of sample was packed inside a 7 mm rotor. Magic-angle spinning (MAS) NMR spectra of fluocinolone acetonide (FA) were acquired using a Varian Unity Inova 400 operating at 399.8 and 100.5 MHz for ^1H and ^13C respectively. The spectra were acquired using cross-polarization (CP) with total sideband suppression and a spinning speed of 4 kHz. Additional acquisition and processing parameters are noted below:
All spectra were externally referenced to hexamethylbenzene (HMB) (^13C, aliphatic peak at 17.4 ppm).

For series [2] the following is noted: background statement; cited from earlier work.

Consider `CC1(C)O[C@@H]2C[C@H]3[C@@H]4C[C@H](F)C5=CC(=O)C=C[C@]5(C)[C@@]4(F)[C@@H](O)C[C@]3(C)[C@]2(C(=O)CO)O1` [Fluocinolone acetonide], for which, in series [1], the “polymorphic changes after exposure to water for an extended time period” value is recorded as “all polymorphic forms interconvert to the same form”. In series [2], the solubility in water result is recorded as “practically insoluble”.

Values taken from patent US20070122483A1, “Fluocinolone acetonide drug substance polymorphic interconversion” (priority 2005, published 2007).
